From patent US9206125B2, “Use of compound binding to mSin3B that specifically binds to neuron restrictive silencer factor (NRSF)” (PUBLIC UNIVERSITY CORPORATION YOKOHAMA CITY UNIVERSITY, priority 2010, dated 2015)

Experiments:
[1] = tested on: DAOY (human medulloblastoma cell strain); test: MTT assay using a human medulloblastoma cell strain (Example 2, relative growth); assay type: cell-based; details: DAOY cells
Excerpt: Cell growth effects were examined on 3,5-dimethylpiperidyl 3-methyl-4-nitrophenyl ketone (compound 155) and 1-[4-(difluoromethoxy)phenyl]-2-(3,5-dimethylpiperidyl)ethan-1-one (compound A28) (MTT assay using a human medulloblastoma cell strain).
Compounds: 3,5-dimethylpiperidyl 3-methyl-4-nitrophenyl ketone (compound 155) (purchased from SPECS); 1-[4-(difluoromethoxy)phenyl]-2-(3,5-dimethylpiperidyl)ethan-1-one (compound A28) (purchased from Enamine)
Cell: DAOY (human medulloblastoma cell strain) (provided by Kanno, Department of Neurosurgery, School of Medicine, Yokohama City University)
(§1) Medium: DMEM (High Glucose, Nacalai Tesque)
Reagent for cell counting: MTT cell counting kit (Nacalai Tesque) MTT Assay: (operations)
Day −1: DAOY was plated on three 96-well plates at 5×10^3 cells/well. These three plates were for use on day 0, day 1 and day 3, respectively. As a medium, 10% FBS-containing DMEM was used.
Day 0: MTT assay was carried out using the plate for day 0 to measure the activity at the basal cell count. With respect to the plates for day 1 and day 3, the compound was added to give a concentration of 100 μg/ml (as controls, DMEM alone and DMEM containing DMSO (solvent) were used). Specifically, the compound-containing DMEM was prepared in advance, and the compound was added to the plate through medium exchange. At this time, FBS concentration was lowered to 5% in order to prevent the masking of the compound's effect due to excessive growth signals. Day 1: MTT assay was carried out using the plate for day 1. Day 3: MTT assay was carried out using the plate for day 3. Data Analysis: Relative growths on day 1 and day 3 were calculated, with the average of MTT activities (Ab 570 nm) on day 0 in the rows of wells for addition of the respective compounds being taken, as 100.
Each experiment was performed in quadruple and each run was repeated three times. Relative values based on the values of day 0 were used to calculate data for n=12 wells and statistical tests were performed.
Test was by t-test between the cell count with DMEM alone and the cell count with the compound or DMSO.
MIT Assay: A technique for cell counting using the respiratory activity of mitochondria as an indicator. When the respiratory activity is high (the value at Ab 570 nm is high), it can be interpreted that the cell count is large.

MOP = test: Quantitative real time PCR of MOP mRNA in dorsal root ganglia after nerve injury; assay type: in vivo, C57BL male mice; details: 0.5 nmol i.t., single administration 3 days after nerve injury; 3, 6 and 12 hours after administration; n=3; tendency
Nav 1.8 = test: Quantitative real time PCR of Nav 1.8 mRNA in dorsal root ganglia after nerve injury; assay type: in vivo, C57BL male mice; details: 0.5 nmol i.t., single administration 3 days after nerve injury
[2] = tested on: neuropathic pain model by partial sciatic nerve ligation; test: Electrical stimulation-induced paw withdrawal (EPW) test, hypoesthesia after nerve injury; assay type: in vivo, C57BL male mice; details: 0.5 nmol i.t. once per day from 3 days after nerve injury; observed 4 and 5 days after injury
[3] = tested on: neuropathic pain model by partial sciatic nerve ligation; test: Thermal paw withdrawal test, morphine resistance after nerve injury; assay type: in vivo, C57BL male mice; details: compound 0.5 nmol i.t. from 3 days after injury; morphine 30 nmol i.pl. 5 days after injury
[4] = tested on: DAOY (human medulloblastoma cell strain); test: MTT assay, growth inhibition against human medulloblastoma cells (Example 3); assay type: cell-based; set-up: dose or concentration left out as unconfirmed; details: final concentration 200
Description: Compounds: No. 5, No. 15, No. 23, NCR 6, NCR 7, NCR 11, NCR 13, NCR 14, NCR 15
Cell: DAOY (human medulloblastoma cell strain)
as §1
Reagent for cell counting: MTT cell counting kit (Nacalai Tesque) *Hereinafter, referred to as MTT assay.
DAOY was plated on three 96-well plates at 5×10^3 cells/well. These three plates were for use on day 0, day 1 and day 3, respectively. As a medium, 10% FBS-containing DMEM was used.
The medium in the plate for day 0 was exchanged with 5% FBS-containing DMEM, and cells were cultured therein for 30 minutes. Then, MTT assay was carried out to measure the activity at the basal cell count.
With respect to the plates for day 1 and day 3, the medium was exchanged with 5% FBS-containing medium, and the compound was added simultaneously at this time (as a control, DMSO (the solvent) alone was added).
MTT assay was carried out using the plate for day 1.
MTT assay was carried out using the plate for day 3.
Relative growths on day 1 and day 3 were calculated, with the average of MTT activities (Ab 570 nm) […] in the rows of wells for the respective compounds being taken as 100. Each experiment was performed in quadruple.
Statistical test was performed by compound-treated cells and DMSO-treated cells.

[5] = Day 0, basal cell count before compound addition
[6] = Day 1, compound 100 μg/ml, 5% FBS DMEM

| Compound | melting point | also measured |
| --- | --- | --- |
| CC1CC(C)CN(CC(=O)c2ccc(OC(F)F)cc2)C1 (stereo not drawn) [compound A28, 1-[4-(difluoromethoxy)phenyl]-2-(3,5-dimethylpiperidyl)ethan-1-one] |  | Relative Growth (MTT activity, Ab 570 nm, day 0 average taken as 100) [1, 5]: 100.00 ± 6.56; Relative Growth (MTT activity, Ab 570 nm, day 0 average taken as 100) [1, 6]: 233.28 ± 1.69; recovery of the lowering of expression of MOP after nerve injury (MOP): 10-15%; time needed for the effect on Nav 1.8 and MOP expression to appear (Nav 1.8): 3 to 6 h; recovery of the lowering of expression of Nav 1.8 after nerve injury (Nav 1.8; 3, 6 and 12 hours after administration, n=3, tendency): 10-15% |
| Cc1cc(C(=O)N(C(C)C)C(C)C)ccc1[N+](=O)[O-] [NCR-15, N,N-Diisopropyl-3-Methyl-4-Nitrobenzamide] | 107.6 to 109.7 °C |  |
| CCN(CC)C(=O)c1ccc([N+](=O)[O-])c(C)c1 [NCR-9, N,N-Diethyl-3 Methyl-4-Nitrobenzamide] | 74.5 to 76 °C |  |
| Cc1cc(S(=O)(=O)N2CC(C)CC(C)C2)ccc1[N+](=O)[O-] (stereo not drawn) [NCR-12, 3,5-Dimethyl-1-[(3-Methyl-4-Nitrophenyl)sulfonyl]piperidine] | 132.7 to 138.5 °C |  |
| CC(C)CCNC(=O)CCC(=O)NCc1ccc(F)cc1 [compound 106, N-[(4-fluorophenyl)methyl]-N′-(3-methylbutyl)butane-1,4-diamide] |  | effect on hypoesthesia (pain threshold in response to C-fiber stimulation), EPW test [2]: no effect on pain threshold; peripheral morphine analgesia after nerve injury, thermal paw withdrawal test [3]: morphine analgesia was hardly recognized |
| Cc1cc(C(=O)N(Cc2ccccc2)Cc2ccccc2)ccc1[N+](=O)[O-] [NCR-18, N,N-Dibenzyl-3-Methyl-4-Nitrobenzamide] | 105.8 to 108.7 °C |  |
| Cc1cc(C(=O)N2CC(C)CC(C)C2)ccc1[N+](=O)[O-] (stereo not drawn) [compound 155, 3,5-dimethylpiperidyl 3-methyl-4-nitrophenyl ketone] |  | Relative Growth (MTT activity, Ab 570 nm, day 0 average taken as 100) [1, 5]: 100.00 ± 5.08; Relative Growth (MTT activity, Ab 570 nm, day 0 average taken as 100) [1, 6]: 123.16 ± 10.03; Relative Growth (MTT activity, Ab 570 nm, day 0 average taken as 100) ([1]; Day 3, compound 100 μg/ml, 5% FBS DMEM): 105.07 ± 17.53 |
| Cc1cc(CN2CC(C)CC(C)C2)ccc1[N+](=O)[O-] (stereo not drawn) [NCR 7, 3,5-Dimethyl-1-(3-Methyl-4-Nitrobenzyl)piperidine] |  | cytotoxicity (MTT assay) [4]: cytotoxicity was observed |

More lines, main results first:

| melting point | Compound | also measured |
| --- | --- | --- |
| 134.2 to 141 °C | Cc1cc(C(=O)NC2CCCCC2)ccc1[N+](=O)[O-] [NCR-22, N-Cyclohexyl-3-Methyl-4-Nitrobenzamide] |  |
| 113.5 to 115.4 °C | CC1CC(C)CN(C(=O)c2ccc(Cl)cc2)C1 (stereo not drawn) [NCR-11, 3,5-Dimethyl-1-(4-Chlorobenzoyl)piperidine] |  |
| 120 to 125 °C | CC1CC(C)CN(C(=O)c2ccc([N+](=O)[O-])cc2)C1 (stereo not drawn) [NCR-2, 3,5-Dimethyl-1-(4-Nitrobenzoyl)piperidine] |  |
| 82 to 82.8 °C | Cc1cc(C(=O)N2CCCC(C)C2)ccc1[N+](=O)[O-] (stereo not drawn) [NCR-3, 3-Methyl-1-(3-Methyl-4-Nitrobenzoyl)piperidine] |  |
| 71.7 to 72.2 °C | Cc1cc(C(=O)N2CCCCC2)ccc1[N+](=O)[O-] [NCR-8, 1-(3-Methyl-4-Nitrobenzoyl)piperidine] |  |
| 61.3 to 61.9 °C | Cc1cc(C(=O)N2CCCC2)ccc1[N+](=O)[O-] [NCR-19, 1-(3-Methyl-4-Nitrobenzoyl)pyrrolidine] |  |
| 107.2 to 108.7 °C | CC1CC(C)CN(C(=O)c2ccccc2)C1 (stereo not drawn) [NCR-6, 1-(Benzoyl)-3,5-Dimethyl piperidine] |  |
| 99.7 to 100.5 °C | Cc1cc(C(=O)N2C(C)CCCC2C)ccc1[N+](=O)[O-] (stereo not drawn) [NCR-17, 2,6-Dimethyl-1-(3-Methyl-4-Nitrobenzoyl)piperidine] |  |
| 70.2 to 71.3 °C | CC1CCCN(C(=O)c2ccc([N+](=O)[O-])cc2)C1 (stereo not drawn) [NCR-4, 3-Methyl-1-(4-Nitrobenzoyl)piperidine] |  |
